Assay results: patent publication US8623821B2, “Zymogen activators” (Genentech, Inc., priority 2011, dated 2014)
Entries after “also recorded” stand apart in the source; their conditions may differ. Each block holds one molecule with its values, some of them ahead of it. Where a SMILES comes first, the peptide text is derived from it. Bridges are numbered along the chain shown (N, C = ends). [ ]: non-standard residue; d: D form.

Key:
scHGF β = biological target: T1, scHGF β (Homo sapiens, UniProt P14210, R494E); experiment: scHGF β activation/Met binding assay (biolayer interferometry); conditions: for Kd: peptide titration with 0.5 μM scHGF β, biotinylated Met ECD on sensor, ±stdev of n=3; for AC50: peptide-dependent activation of zHGF β binding to surface immobilized Met ECD, read-out: apparent activation constant (AC50); for binding to scHGF β / activation of Met binding, in words: Met-coated sensor; for fold more potent than previously described peptides derived from the native HGF β N-terminus: versus Landgraf et al. 2010 peptides
T1 construct: the scHGF β-chain (residues Asn^479 to Ser^728) contains the R494E mutation; His-tag (C); made in house; host or cells: insect cells (pAcGP67 vector)
Method: (§1) Met binding assays were carried out utilizing the OctetRed™ biolayer interferometry instrument (ForteBio, Inc.) as reported previously (Landgraf, K. E. et al. (2010) J Biol Chem 285: 40362-72). Biotinylated Met ECD (Sema/PSI-AviTag) was captured on the surface of streptavidin optical sensor tips (SA biosensors, ForteBio, Inc.), and transferred into buffer containing 0.5 μM scHGF β-chain variants in the presence of increasing concentration of indicated peptides. Association and dissociation reactions were monitored to ensure reversible binding between scHGF β and Met. Binding was quantified using the steady-state levels of surface response from the association reaction. Equilibrium constants were derived by least squares fitting of the titration data to a single-site binding equation. Errors reported are ±stdev of n=3 independent experiments.
Based on the finding that the consensus ZAPs contain features consistent with binding and inserting into the activation pocket, several related peptides were synthesized and utilized in a previously established scHGF β activation assay to assess their affinities and ability to active Met binding (Landgraf, K. E. et al. (2010) J Biol Chem 285: 40362-72). Since scHGF β can only weakly interact with the Met Sema-PSI domain compared to the active HGF β form, biolayer interferometry was used in the activation assay to measure the ability of a peptide to directly enhance the binding affinity of scHGF β to a streptavidin sensor surface coated with biotinylated Met (Landgraf, K. E. et al. (2010) J Biol Chem 285: 40362-72). Thus, titration of an activator peptide should result in a significant increase in the surface response signal due to enhanced scHGF β binding to Met.

scHGF = scHGF (Homo sapiens, UniProt P14210, R494E); experiment: BxPC-3 cell survival assay, peptide titrations in the presence of scHGF; assay type: cell-based; design: Full-length recombinant HGF proteins were expressed in 1-liter fermentation cultures of Chinese hamster ovary (CHO) cells; made in house; host or cells: CHO cells (scHGF); conditions: for activation of scHGF / cell survival, in words: peptide plus scHGF
Method: (§2) BxPC-3 cells were obtained from ATCC and maintained in cell culture medium (RPMI, 10% FBS (Sigma), 50 U/ml penicillin/50 μg/ml streptomycin, 2 mM glutamine). For the survival assay, cells were plated at 10,000 cells/well in 96 well tissue culture plates (Falcon 353072) in 50 μl assay diluent (RPMI, 0.1% BSA (Sigma) 50 U/ml penicillin/50 μg/ml streptomycin, 2 mM glutamine). Cells were allowed to attach for 1-2 h in a 37° C. CO2 incubator. Human HGF proteins (HGF, scHGF or scHGF plus peptide titrations) were pre-incubated at room temperature in assay diluent. HGF/peptide mixtures were added to cells in microtiter plates in triplicate at 50 μl per well and plates were incubated at 37° C. in a CO2 incubator. Final concentrations of HGF variants were 400 ng/ml and peptide concentrations were titrated accordingly. After 72 h, 25 μl alamar Blue (Serotec, BUF012B) was added to each well and incubate an additional 2 h at 37° C. in a CO2 incubator. Plates were agitated vigorously for 10 min at room temperature, and fluorescence was read at 530-590 nm in a fluorescent plate reader.
Using Bx-PC3 cells, peptide titrations in the presence of scHGF were performed and observed robust activation was seen of scHGF signaling through Met, which reached levels equivalent HGF-induced signaling.
Cellular assays were used to address whether the optimized ZAPtides act as allosteric activators of pro-HGF and stimulate Met signaling in biologically relevant settings of cell survival and migration. […] Importantly, ZAPtides required the presence of scHGF as well as induced […] cell survival that was antagonized by an HGF-blocking anti-Met antibody, each confirming Met pathway selectivity.

scHGF β D672N mutant = biological target: T2, scHGF β D672N mutant (Homo sapiens, UniProt P14210, D672N/R494E); experiment: scHGF β activation/Met binding assay with activation-pocket mutant; conditions: Asp672 to Asn in activation pocket
T2 construct: the scHGF β-chain (residues Asn^479 to Ser^728) contains the R494E mutation; His-tag (C); made in house; host or cells: insect cells (pAcGP67 vector)
Method: as §1
However, the partial activity observed with Asp in position 3 was consistent with the fact that the native sequence contains a highly similar Asn residue, but the strained backbone conformation necessary to accommodate the Asp during N-terminal insertion would be energetically unfavorable. […] In addition, the solubility of this peptide variant is enhanced by the polar aspartic acid side chain while maintaining increased activity compared to the IVDG.14 variant.

Met = experiment: Binding of peptide-zHGF β complex to surface immobilized Met ECD (biolayer interferometry); conditions: read-out: affinity of peptide-zHGF β complex for Met
Method: as §1

BxPC-3 cells = experiment: BxPC-3 cell survival assay, HGF proteins alone; assay type: cell-based, human
Method: as §2, with “Final concentrations of HGF variants were 400 ng/ml and peptide concentrations were titrated accordingly.” left out

Peptide solubility = assay type: physicochemical

Chain of scHGF (P14210 32-728 R494E): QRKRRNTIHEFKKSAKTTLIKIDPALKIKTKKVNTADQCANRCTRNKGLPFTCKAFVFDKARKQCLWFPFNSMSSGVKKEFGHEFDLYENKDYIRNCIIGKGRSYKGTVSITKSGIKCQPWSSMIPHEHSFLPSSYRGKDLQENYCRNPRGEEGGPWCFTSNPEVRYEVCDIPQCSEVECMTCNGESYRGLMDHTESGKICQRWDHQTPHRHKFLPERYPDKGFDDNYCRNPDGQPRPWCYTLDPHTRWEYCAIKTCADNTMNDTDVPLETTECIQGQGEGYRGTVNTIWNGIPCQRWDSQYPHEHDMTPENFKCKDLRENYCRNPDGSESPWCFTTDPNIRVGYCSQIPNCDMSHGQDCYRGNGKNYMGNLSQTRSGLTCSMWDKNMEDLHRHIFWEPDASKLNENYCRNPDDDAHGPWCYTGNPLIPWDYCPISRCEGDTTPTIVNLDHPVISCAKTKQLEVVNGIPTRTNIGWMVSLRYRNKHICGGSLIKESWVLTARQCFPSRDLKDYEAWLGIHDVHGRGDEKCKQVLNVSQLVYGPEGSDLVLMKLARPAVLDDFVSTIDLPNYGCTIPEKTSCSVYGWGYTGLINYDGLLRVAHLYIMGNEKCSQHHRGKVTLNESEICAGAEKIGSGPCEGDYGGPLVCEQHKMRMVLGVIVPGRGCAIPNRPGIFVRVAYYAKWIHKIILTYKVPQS
T1 sequence (P14210 479-728 R494E): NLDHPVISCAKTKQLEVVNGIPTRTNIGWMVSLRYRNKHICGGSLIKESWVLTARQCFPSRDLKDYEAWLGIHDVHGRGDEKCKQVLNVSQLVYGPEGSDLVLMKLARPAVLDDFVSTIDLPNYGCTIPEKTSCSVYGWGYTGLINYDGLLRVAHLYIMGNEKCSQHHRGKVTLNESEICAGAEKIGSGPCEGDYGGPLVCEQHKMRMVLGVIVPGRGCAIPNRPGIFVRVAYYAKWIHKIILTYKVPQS
T1 sequence (P08581 27-515 partner limits assumed): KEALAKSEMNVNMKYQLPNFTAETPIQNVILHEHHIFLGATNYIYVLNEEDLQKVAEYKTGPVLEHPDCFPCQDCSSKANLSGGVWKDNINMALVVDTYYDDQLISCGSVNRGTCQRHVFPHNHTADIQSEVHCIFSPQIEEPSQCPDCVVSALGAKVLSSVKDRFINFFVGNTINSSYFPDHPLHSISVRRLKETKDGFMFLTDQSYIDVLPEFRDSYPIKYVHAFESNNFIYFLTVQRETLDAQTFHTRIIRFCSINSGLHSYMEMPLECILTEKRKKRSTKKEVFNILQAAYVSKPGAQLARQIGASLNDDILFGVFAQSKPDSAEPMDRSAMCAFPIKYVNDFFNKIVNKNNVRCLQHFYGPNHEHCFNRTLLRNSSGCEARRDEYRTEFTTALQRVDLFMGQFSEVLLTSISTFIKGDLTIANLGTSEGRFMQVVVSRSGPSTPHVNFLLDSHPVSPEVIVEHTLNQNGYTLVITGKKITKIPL
T2 sequence (P14210 479-728 R494E/D672N): as the sequence (P14210 479-728 R494E) above, with D194N counted along it

Molecule: G I G G C P Y W M D R E E C I (GIGGCPYWMDREECI) [ZAP.03G]
binding to scHGF β / activation of Met binding, in words (scHGF β): significantly impairs its binding; also recorded: significantly impaired
activation of scHGF / cell survival, in words (scHGF; BxPC-3 cells): dramatically hindered its activity

Molecule: I V D D Y P W W M D V (IVDDYPWWMDV) [IVDD.14]
binding to scHGF β / activation of Met binding, in words (scHGF β): no detectable binding

Molecule: G V G G Y P W W M D V (GVGGYPWWMDV) [GVGG.14]
binding to scHGF β / activation of Met binding, in words (scHGF β): lack of activity; also recorded: completely abolished activity
activation of scHGF / cell survival, in words (scHGF; BxPC-3 cells): no detectable activity

Molecule: HGF: proteolytically activated two-chain human hepatocyte growth factor, recombinant
stimulation of cell survival by HGF protein alone (BxPC-3 cells; 200 ng/ml (FIG. 11A)): potently stimulate cell survival
stimulation of cell survival by HGF protein alone (BxPC-3 cells; 400 ng/ml (FIG. 6A)): potently stimulate cell survival

Molecule: CC[C@H](C)[C@H](N)C(=O)N[C@H](C(=O)N[C@@H](CC(=O)O)C(=O)NCC(=O)N[C@@H](Cc1ccc(O)cc1)C(=O)N1CCC[C@H]1C(=O)N[C@@H](Cc1c[nH]c2ccccc12)C(=O)N[C@@H](Cc1c[nH]c2ccccc12)C(=O)N[C@@H](CCSC)C(=O)N[C@@H](CC(=O)O)C(=O)N[C@H](C(N)=O)C(C)C)C(C)C [IVDG.14, I V D G Y P W W M D V] (H-IVDGYPWWMDV-NH2; N-terminus assumed)
activation of scHGF / cell survival, in words (scHGF; BxPC-3 cells): partial scHGF signaling activity

Second part, led by results:

Kd (scHGF β): 0.3 ± 0.1 µM
AC50 (scHGF β): 0.3 µM
Molecule: CC[C@H](C)[C@H](N)C(=O)N[C@H](C(=O)NCC(=O)NCC(=O)N[C@H]1CSSC[C@@H](C(=O)N[C@H](C(N)=O)[C@@H](C)CC)NC(=O)[C@H](CCC(=O)O)NC(=O)[C@H](CCC(=O)O)NC(=O)[C@H](CCCNC(=N)N)NC(=O)[C@H](CC(=O)O)NC(=O)[C@H](CCSC)NC(=O)[C@H](Cc2c[nH]c3ccccc23)NC(=O)[C@H](Cc2ccc(O)cc2)NC(=O)[C@@H]2CCCN2C1=O)[C@@H](C)CC [ZAP.03] (H-IIGGCPYWMDREECI-NH2; disulfide 5-14)

Kd (scHGF β): 59 ± 30 µM
binding to scHGF β / activation of Met binding, in words (scHGF β): significantly impaired
Molecule: CC[C@H](C)[C@H](N)C(=O)N[C@H](C(=O)NCC(=O)NCC(=O)N[C@@H](CO)C(=O)N1CCC[C@H]1C(=O)N[C@@H](Cc1ccc(O)cc1)C(=O)N[C@@H](Cc1c[nH]c2ccccc12)C(=O)N[C@@H](CCSC)C(=O)N[C@@H](CC(=O)O)C(=O)N[C@@H](CCCNC(=N)N)C(=O)N[C@@H](CCC(=O)O)C(=O)N[C@@H](CCC(=O)O)C(=O)N[C@@H](CO)C(=O)N[C@H](C(N)=O)[C@@H](C)CC)[C@@H](C)CC [ZAP.03S, I I G G S P Y W M D R E E S I] (H-IIGGSPYWMDREESI-NH2; N-terminus assumed)

binding to scHGF β / activation of Met binding, in words (scHGF β): no detectable binding
Molecule: I V G D Y P W W M D V (IVGDYPWWMDV) [IVGD.14]

Kd (Met): 0.69 µM
fold improvement of AC50 over previous activators (scHGF β): > 90 fold
Kd (scHGF β): 34 ± 3 µM
AC50 (scHGF β): 21 µM
fold more potent than previously described peptides derived from the native HGF β N-terminus (scHGF β): ca. 60 fold
Molecule: CC[C@H](C)[C@H](N)C(=O)N[C@H](C(=O)NCC(=O)NCC(=O)N[C@@H](Cc1ccc(O)cc1)C(=O)N1CCC[C@H]1C(=O)N[C@@H](Cc1c[nH]c2ccccc12)C(=O)N[C@@H](Cc1c[nH]c2ccccc12)C(=O)N[C@@H](CCSC)C(=O)N[C@@H](CC(=O)O)C(=O)N[C@H](C(N)=O)C(C)C)C(C)C [IVGG.14, I V G G Y P W W M D V] (H-IVGGYPWWMDV-NH2)
activity of peptide with scHGF β D672N (scHGF β D672N mutant): lack of activity; also recorded: completely abolished activity
EC50 (scHGF; BxPC-3 cells, serum starvation, 72 h, alamar Blue, read-out: EC50 of activation of scHGF, cell survival): ~20 µM

Kd (scHGF β): 6 ± 1 µM
Molecule: CC[C@H](C)[C@H](N)C(=O)N[C@H](C(=O)NCC(=O)NCC(=O)N[C@@H](CC(=O)O)C(=O)N1CCC[C@H]1C(=O)N[C@@H](Cc1ccc(O)cc1)C(=O)N[C@@H](Cc1c[nH]c2ccccc12)C(=O)N[C@H](C(=O)N1CCC[C@H]1C(=O)N[C@@H](Cc1c[nH]cn1)C(=O)N1CCC[C@H]1C(=O)NCC(=O)N[C@@H](CC(=O)O)C(=O)N[C@@H](C)C(N)=O)C(C)C)[C@@H](C)CC [ZAP.01, I I G G D P Y W V P H P G D A] (H-IIGGDPYWVPHPGDA-NH2; N-terminus assumed)
EC50 of scHGF activation, order of magnitude in words (scHGF; Bx-PC3 cell survival, dose-titrations): micromolar

AC50 (scHGF β): 42 µM
Molecule: CC[C@H](C)[C@H](N)C(=O)N[C@H](C(=O)NCC(=O)NCC(=O)N[C@@H](CC(=O)O)C(=O)N[C@@H](Cc1ccc(O)cc1)C(=O)N[C@@H](Cc1c[nH]c2ccccc12)C(=O)N[C@@H](Cc1c[nH]c2ccccc12)C(=O)N[C@H](C(=O)N1CCC[C@H]1C(=O)N[C@H](C(N)=O)[C@@H](C)CC)C(C)C)C(C)C [ZAP.09, IVGGDYWWVPI] (H-IVGGDYWWVPI-NH2; N-terminus assumed)

fold more potent than previously described peptides derived from the native HGF β N-terminus (scHGF β): 100 fold
solubility, in words (Peptide solubility): enhanced
Molecule: CC[C@H](C)[C@H](N)C(=O)N[C@H](C(=O)N[C@H](CC(=O)O)C(=O)NCC(=O)N[C@@H](Cc1ccc(O)cc1)C(=O)N1CCC[C@H]1C(=O)N[C@@H](Cc1c[nH]c2ccccc12)C(=O)N[C@@H](Cc1c[nH]c2ccccc12)C(=O)N[C@@H](CCSC)C(=O)N[C@@H](CC(=O)O)C(=O)N[C@H](C(N)=O)C(C)C)C(C)C [IVdG.14] (H-IV[dD]GYPWWMDV-NH2)
